Read-outs that look alike come from different tables or passages of the source.

One test has as its target T1, human V2 receptor (Homo sapiens, UniProt P30518).
T1 construct: expressed in transfected cells; host or cells: CHO K1 (ATCC) expressing firefly luciferase under a CRE-responsive promoter
Kind of test: Cellular in vitro assay for determining vasopressin receptor activity, V2 receptor cell line (CHO, CRE-luciferase). The class given is cell-based. The settings on record: CHO cell line transfected with human V2 receptor, [Arg8]-vasopressin at EC50 concentration, read-out: IC50 hV2.

In another test the target is T2, human V1a receptor (Homo sapiens, UniProt P37288).
T2 construct: expressed in transfected cells; host or cells: CHO K1 (ATCC), also stably transfected with a modified aequorin
T2 sequence (P37288 whole entry): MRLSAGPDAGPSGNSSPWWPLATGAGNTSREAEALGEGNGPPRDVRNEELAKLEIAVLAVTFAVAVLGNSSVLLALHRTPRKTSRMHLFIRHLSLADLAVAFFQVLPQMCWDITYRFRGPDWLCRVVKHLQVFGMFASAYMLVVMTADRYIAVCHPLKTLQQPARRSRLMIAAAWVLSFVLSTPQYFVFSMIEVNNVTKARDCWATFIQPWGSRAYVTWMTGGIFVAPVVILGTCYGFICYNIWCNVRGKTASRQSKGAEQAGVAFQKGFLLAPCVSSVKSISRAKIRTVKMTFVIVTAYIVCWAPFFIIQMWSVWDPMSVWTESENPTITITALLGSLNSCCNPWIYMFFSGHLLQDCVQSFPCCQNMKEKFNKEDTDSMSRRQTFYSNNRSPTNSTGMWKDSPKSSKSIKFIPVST
Kind of test: Cellular in vitro assay for determining vasopressin receptor activity, V1a receptor cell line (CHO, aequorin luminescence). The class given is cell-based. The conditions noted are these: for IC50: CHO cell line transfected with human V1a receptor, [Arg]-vasopressin at EC50 concentration, read-out: IC50 hV1a; for ratio IC50 hV2/hV1a: selectivity ratio IC50 hV2 / IC50 hV1a. In a few lines:
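CHO K1/aequorin cells, coelenterazine 5 μg/ml o/n; cpd 10 min; [Arg]-vasopressin at EC50; luminescence read immediately; IC50.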

T1 sequence (P30518 whole entry): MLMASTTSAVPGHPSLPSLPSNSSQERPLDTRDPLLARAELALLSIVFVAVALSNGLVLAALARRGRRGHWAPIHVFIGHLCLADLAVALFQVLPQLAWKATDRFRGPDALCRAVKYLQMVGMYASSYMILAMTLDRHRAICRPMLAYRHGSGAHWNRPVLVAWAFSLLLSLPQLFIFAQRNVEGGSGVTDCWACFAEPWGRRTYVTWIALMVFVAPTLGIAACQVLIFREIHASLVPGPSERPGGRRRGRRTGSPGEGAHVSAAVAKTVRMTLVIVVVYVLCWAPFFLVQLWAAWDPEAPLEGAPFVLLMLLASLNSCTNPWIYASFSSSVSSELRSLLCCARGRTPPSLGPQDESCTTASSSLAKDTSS

Consider `NC(=O)[C@H]1CC(F)(F)CN1C(=O)c1cccc(Cl)c1-n1cnc(Cn2nc(-c3ccc(Cl)cc3)n(C[C@H](O)C(F)(F)F)c2=O)n1` [Example 391, 1-{3-Chloro-2-[3-({3-(4-chlorophenyl)-5-oxo-4-[(2S)-3,3,3-trifluoro-2-hydroxypropyl]-4,5-dihydro-1H-1,2,4-triazol-1-yl}methyl)-1H-1,2,4-triazol-1-yl]benzoyl}-4,4-difluoro-D-prolinamide], for which the IC50 on human V2 receptor (3 hours) stood at 3400 nM. For the same compound, on human V1a receptor, the IC50 is 52 nM and the “ratio IC50 hV2/hV1a” value is given as 65.4.

As to `O=C(NCCC(F)(F)F)c1cccc(Cl)c1-n1cnc(Cn2nc(-c3ccc(Cl)cc3)n(C[C@H](O)C(F)(F)F)c2=O)n1` [Example 392, 3-Chloro-2-[3-({3-(4-chlorophenyl)-5-oxo-4-[(2S)-3,3,3-trifluoro-2-hydroxypropyl]-4,5-dihydro-1H-1,2,4-triazol-1-yl}methyl)-1H-1,2,4-triazol-1-yl]-N-(3,3,3-trifluoropropyl)benzamide], the IC50 was 280 nM on human V2 receptor (3 hours) and 22.5 nM on human V1a receptor. Moreover, the “ratio IC50 hV2/hV1a” value on human V1a receptor is 12.4.

In the case of `O=C(NC1CC1)c1cccc(Cl)c1-n1cnc(Cn2nc(-c3ccc(Cl)cc3)n(C[C@@H](O)C(F)(F)F)c2=O)n1` [Example 393, 3-Chloro-2-[3-({3-(4-chlorophenyl)-5-oxo-4-[(2R)-3,3,3-trifluoro-2-hydroxypropyl]-4,5-dihydro-1H-1,2,4-triazol-1-yl}methyl)-1H-1,2,4-triazol-1-yl]-N-cyclopropylbenzamide], the IC50 is 6100 nM at human V2 receptor (3 hours) and 16.5 nM on human V1a receptor. Moreover, the “ratio IC50 hV2/hV1a” value at human V1a receptor is 369.7.

In the case of `O=C(NCC1CC1)c1cccc(Cl)c1-n1cnc(Cn2nc(-c3ccc(Cl)cc3)n(C[C@@H](O)C(F)(F)F)c2=O)n1` [Example 394, 3-Chloro-2-[3-({3-(4-chlorophenyl)-5-oxo-4-[(2R)-3,3,3-trifluoro-2-hydroxypropyl]-4,5-dihydro-1H-1,2,4-triazol-1-yl}methyl)-1H-1,2,4-triazol-1-yl]-N-(cyclopropylmethyl)benzamide], the IC50 on human V2 receptor (3 hours) is 4400 nM; at human V1a receptor it was 295 nM. Also, the “ratio IC50 hV2/hV1a” value at human V1a receptor stood at 14.9.

On to `NC(=O)[C@@H]1CC(F)(F)CN1C(=O)c1cccc(Cl)c1-n1cnc(Cn2nc(-c3ccc(Cl)cc3)n(C[C@@H](O)C(F)(F)F)c2=O)n1` [Example 396, 1-{3-Chloro-2-[3-({3-(4-chlorophenyl)-5-oxo-4-[(2R)-3,3,3-trifluoro-2-hydroxypropyl]-4,5-dihydro-1H-1,2,4-triazol-1-yl}methyl)-1H-1,2,4-triazol-1-yl]benzoyl}-4,4-difluoro-L-prolinamide], for which the IC50 at human V2 receptor (3 hours) came out at 32000 nM. For the same compound, on human V1a receptor, the IC50 came out at 301 nM and the “ratio IC50 hV2/hV1a” value was 106.3.

On to `O=C(c1cccc(Cl)c1-n1cnc(Cn2nc(-c3ccc(Cl)cc3)n(C[C@@H](O)C(F)(F)F)c2=O)n1)N1CCC(F)(F)C1` [Example 398, 2-[(1-{2-Chloro-6-[(3,3-difluoropyrrolidin-1-yl)carbonyl]phenyl}-1H-1,2,4-triazol-3-yl)methyl]-5-(4-chlorophenyl)-4-[(2R)-3,3,3-trifluoro-2-hydroxypropyl]-2,4-dihydro-3H-1,2,4-triazol-3-one], for which the IC50 at human V2 receptor was determined as 22000 nM. At human V1a receptor, the IC50 came out at 440 nM and the “ratio IC50 hV2/hV1a” value is reported as 50.0.

Regarding `O=C(NC1CC(F)(F)C1)c1cccc(Cl)c1-n1cnc(Cn2nc(-c3ccc(Cl)cc3)n(C[C@@H](O)C(F)(F)F)c2=O)n1` [Example 399, 3-Chloro-2-[3-({3-(4-chlorophenyl)-5-oxo-4-[(2R)-3,3,3-trifluoro-2-hydroxypropyl]-4,5-dihydro-1H-1,2,4-triazol-1-yl}methyl)-1H-1,2,4-triazol-1-yl]-N-(3,3-difluorocyclobutyl)benzamide], the IC50 was 3150 nM on human V2 receptor and 190 nM on human V1a receptor. Moreover, the “ratio IC50 hV2/hV1a” value on human V1a receptor came to 16.6.

Take `O=C(c1cccc(Cl)c1-n1cnc(Cn2nc(-c3ccc(Cl)cc3)n(C[C@@H](O)C(F)(F)F)c2=O)n1)N1CCCCC1` [Example 401, 5-(4-Chlorophenyl)-2-({1-[2-chloro-6-(piperidin-1-ylcarbonyl)phenyl]-1H-1,2,4-triazol-3-yl}methyl)-4-[(2R)-3,3,3-trifluoro-2-hydroxypropyl]-2,4-dihydro-3H-1,2,4-triazol-3-one]: the IC50 at human V2 receptor turned out to be 9950 nM. In addition, at human V1a receptor, the IC50 stood at 240 nM and the “ratio IC50 hV2/hV1a” value was 41.5.

For `O=C(c1cccc(Cl)c1-n1cnc(Cn2nc(-c3ccc(Cl)cc3)n(C[C@@H](O)C(F)(F)F)c2=O)n1)N1CCOCC1` [Example 402, 2-({1-[2-Chloro-6-(morpholin-4-ylcarbonyl)phenyl]-1H-1,2,4-triazol-3-yl}methyl)-5-(4-chlorophenyl)-4-[(2R)-3,3,3-trifluoro-2-hydroxypropyl]-2,4-dihydro-3H-1,2,4-triazol-3-one], the IC50 at human V2 receptor amounted to 32000 nM; at human V1a receptor it was 435 nM. Moreover, at human V1a receptor, the “ratio IC50 hV2/hV1a” value amounted to 73.6.

As for `O=C(NC1(C(F)(F)F)CC1)c1cccc(Cl)c1-n1cnc(Cn2nc(-c3ccc(Cl)cc3)n(C[C@@H](O)C(F)(F)F)c2=O)n1` [Example 403, 3-Chloro-2-[3-({3-(4-chlorophenyl)-5-oxo-4-[(2R)-3,3,3-trifluoro-2-hydroxypropyl]-4,5-dihydro-1H-1,2,4-triazol-1-yl}methyl)-1H-1,2,4-triazol-1-yl]-N-[1-(trifluoromethyl)cyclopropyl]benzamide], on human V2 receptor, the IC50 is 5800 nM. For the same compound, on human V1a receptor, the IC50 came to 74.5 nM and the “ratio IC50 hV2/hV1a” value was 77.9.

For the compound `O=C(c1cccc(Cl)c1-n1cnc(Cn2nc(-c3ccc(Cl)cc3)n(C[C@@H](O)C(F)(F)F)c2=O)n1)N1CCC[C@@H]1C(F)(F)F` [Example 404, 5-(4-Chlorophenyl)-2-{[1-(2-chloro-6-{[(2R)-2-(trifluoromethyl)pyrrolidin-1-yl]carbonyl}phenyl)-1H-1,2,4-triazol-3-yl]methyl}-4-[(2R)-3,3,3-trifluoro-2-hydroxypropyl]-2,4-dihydro-3H-1,2,4-triazol-3-one], the IC50 was determined as 11500 nM at human V2 receptor and 315 nM on human V1a receptor. At human V1a receptor, the “ratio IC50 hV2/hV1a” value is on record as 36.5.

In the case of `CC1(NC(=O)c2cccc(Cl)c2-n2cnc(Cn3nc(-c4ccc(Cl)cc4)n(C[C@@H](O)C(F)(F)F)c3=O)n2)CC1` [Example 405, 3-Chloro-2-[3-({3-(4-chlorophenyl)-5-oxo-4-[(2R)-3,3,3-trifluoro-2-hydroxypropyl]-4,5-dihydro-1H-1,2,4-triazol-1-yl}methyl)-1H-1,2,4-triazol-1-yl]-N-(1-methylcyclopropyl)benzamide], the concentration for half-maximal inhibition (IC50) at human V2 receptor was found to be 10100 nM. On human V1a receptor, the concentration for half-maximal inhibition (IC50) is 16.5 nM and the “ratio IC50 hV2/hV1a” value is given as 615.2.

On to `CC1(C)COCCN1C(=O)c1cccc(Cl)c1-n1cnc(Cn2nc(-c3ccc(Cl)cc3)n(C[C@@H](O)C(F)(F)F)c2=O)n1` [Example 407, 2-[(1-{2-Chloro-6-[(3,3-dimethylmorpholin-4-yl)carbonyl]phenyl}-1H-1,2,4-triazol-3-yl)methyl]-5-(4-chlorophenyl)-4-[(2R)-3,3,3-trifluoro-2-hydroxypropyl]-2,4-dihydro-3H-1,2,4-triazol-3-one], for which the IC50 was 32000 nM on human V2 receptor and 425 nM at human V1a receptor. Besides, the “ratio IC50 hV2/hV1a” value on human V1a receptor amounted to 75.3.

Consider `NC(=O)[C@H]1CC(F)(F)CN1C(=O)c1cccc(Cl)c1-n1cnc(Cn2nc(-c3ccc(Cl)cc3)n(C[C@@H](O)C(F)(F)F)c2=O)n1` [Example 409, 1-{3-Chloro-2-[3-({3-(4-chlorophenyl)-5-oxo-4-[(2R)-3,3,3-trifluoro-2-hydroxypropyl]-4,5-dihydro-1H-1,2,4-triazol-1-yl}methyl)-1H-1,2,4-triazol-1-yl]benzoyl}-4,4-difluoro-D-prolinamide], for which, on human V2 receptor, the 50% inhibitory concentration (IC50) came to 32000 nM. Also, on human V1a receptor, the IC50 was found to be 180 nM and the “ratio IC50 hV2/hV1a” value amounted to 177.8.

As for `O=C(NCCC(F)(F)F)c1cccc(Cl)c1-n1cnc(Cn2nc(-c3ccc(Cl)cc3)n(C[C@@H](O)C(F)(F)F)c2=O)n1` [Example 410, 3-Chloro-2-[3-({3-(4-chlorophenyl)-5-oxo-4-[(2R)-3,3,3-trifluoro-2-hydroxypropyl]-4,5-dihydro-1H-1,2,4-triazol-1-yl}methyl)-1H-1,2,4-triazol-1-yl]-N-(3,3,3-trifluoropropyl)benzamide], the IC50 on human V2 receptor turned out to be 3300 nM. In addition, at human V1a receptor, the IC50 turned out to be 325 nM and the “ratio IC50 hV2/hV1a” value is recorded as 10.2.

As for `O=C(c1cccc(Cl)c1-n1cnc(Cn2nc(-c3ccc(Cl)cc3)n(C[C@H](O)C(F)(F)F)c2=O)n1)N1CC2(COC2)C1` [Example 411, 2-({1-[2-Chloro-6-(2-oxa-6-azaspiro[3.3]hept-6-ylcarbonyl)phenyl]-1H-1,2,4-triazol-3-yl}methyl)-5-(4-chlorophenyl)-4-[(2S)-3,3,3-trifluoro-2-hydroxypropyl]-2,4-dihydro-3H-1,2,4-triazol-3-one], the IC50 at human V2 receptor amounted to 4850 nM; on human V1a receptor it was 365 nM. In addition, the “ratio IC50 hV2/hV1a” value on human V1a receptor is given as 13.3.

Regarding `O=C(NCC(F)(F)F)c1cccc(C(F)(F)F)c1-n1cnc(Cn2nc(-c3ccc(Cl)cc3)n(C[C@H](O)C(F)(F)F)c2=O)n1` [Example 412, 2-[3-({3-(4-Chlorophenyl)-5-oxo-4-[(2S)-3,3,3-trifluoro-2-hydroxypropyl]-4,5-dihydro-1H-1,2,4-triazol-1-yl}methyl)-1H-1,2,4-triazol-1-yl]-N-(2,2,2-trifluoroethyl)-3-(trifluoromethyl)benzamide], the IC50 at human V2 receptor turned out to be 2000 nM. Also, at human V1a receptor, the IC50 is 140 nM and the “ratio IC50 hV2/hV1a” value stood at 14.3.

In general, IC50 refers to the midpoint of a concentration-inhibition curve.

The record behind these values is patent publication US11173151B2, “Substituted triazole derivatives and uses thereof” (BAYER AKTIENGESELLSCHAFT, priority 2017, dated 2021).
